The source of these data is patent publication EP0210291A1, “Platinum complexes of antitumor agents” (AMERICAN CYANAMID COMPANY, priority 1985, dated 1987).

Where “and” joins values, the source holds several entries; their conditions need not be identical. Identical values can stand only once. Counter-ions that a name gives are not always drawn.

For the assay, the system named is lymphocytic leukemia P388. The experiment in a line: Lymphocytic leukemia P388 test. Type of assay: in vivo, BDF/1 mice. As to conditions: for Median Survival: mice with P388 leukemia; for T/Cx100: survival time treated/control. On the procedure:
Lymphocytic leukemia P388 test
The animals used were BDF/1 mice all of one sex, weighing a minimum of 18 g and all within a 3 g weight range. There were 5 or 6 animals per test group. The tumor transplant was by intraperitoneal injection of 0.5 ml of dilute ascitic fluid containing 10⁶ cells of lymphocytic leukemia P388. The test compounds were administered intraperitoneally on days 1,5 and 9 relative to tumor inoculation, at various doses. The animals were weighed and survivors recorded on a regular basis for 30 days. The median survival time and the ratio of survival time for treated (T)/control (C) animals were calculated. The positive control compound was either 1,4-dihydroxy-5,8-bis[[2-(2-hydroxyethylamino)ethyl]-amino]anthraquinone dihydrochloride or Cisplatin.

Where [1] appears, read: Mus musculus, P388, ip, read-out: T/Cx100.
[2] abbreviates: dose 0.2 mg/kg intraperitoneally on days 1, 5 and 9.
[3] abbreviates: dose 0.6 mg/kg intraperitoneally on days 1, 5 and 9, 0.6 mg/kg.
[4] abbreviates: dose 0.8 mg/kg intraperitoneally on days 1, 5 and 9, 0.8 mg/kg.
[5] abbreviates: dose 1.2 mg/kg intraperitoneally on days 1, 5 and 9.
Where [6] appears, read: dose 1.25 mg/kg intraperitoneally on days 1, 5 and 9.
Where [7] appears, read: dose 1.5 mg/kg intraperitoneally on days 1, 5 and 9.
The mark [8] stands for this setting: dose 2.5 mg/kg intraperitoneally on days 1, 5 and 9.
Setting [9] is: dose 50 mg/kg intraperitoneally on days 1, 5 and 9.
[10] abbreviates: dose 200 mg/kg intraperitoneally on days 1, 5 and 9.

As for `O=C1c2c(O)ccc(O)c2C(=O)c2c(NCCNCCO)ccc(NCCNCCO)c21` [1,4-dihydroxy-5,8-bis[[2-(2-hydroxyethylamino)ethyl]-amino]anthraquinone dihydrochloride], under setting [1], the response vs control in vivo at 0.025 mg/kg stood at 110%, the response vs control in vivo at 0.1 mg/kg amounted to 136%, the response vs control in vivo at 0.4 mg/kg came out at 153% and the response vs control in vivo at 1.6 mg/kg was 212%.
`N.N.[Cl][Pt][Cl]` [Cisplatin]: the “Median Survival” value was 21 days under setting [2]; 21 days and 22.5 days under setting [3]; 26.5 days and 23.5 days under setting [4]; 22 days under setting [5]; 13.5 days under setting [6]; 22.5 days under setting [7]. Besides, the “Median Survival” value under setting [8] was 16 days. The T/Cx100 by setting is: under setting [2], 210%; under setting [3], 196% and 221%; under setting [4], 217% and 235%; under setting [5], 206%; under setting [6], 132%; under setting [7], 184%. Under setting [8], this molecule registered a T/Cx100 of 150%.
As to “hydrazinecarboximidamide, compound with platinum chloride (1:1)”, under setting [9], the “Median Survival” value worked out at 20.5 days and the T/Cx100 is reported as 174%. Besides, under setting [10], the “Median Survival” value is 23 days and the T/Cx100 is 195%.
